These results are taken from PubChem BioAssay AID330 (DTP/NCI, 2004).

This test deals with P388 leukemia ip, CD2F1 mice, survival T/C. Kind of test: NCI In Vivo Anticancer Drug Screen. Data for tumor model P388 Leukemia (intraperitoneal) in CD2F1 (CDF1) mice. Conditions: endpoint: median survival time, higher = longer survival. The procedure, abridged:
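Mice carrying the transplanted tumor received test compound or vehicle. Survival was recorded in each group, and the value is the treated-group measurement divided by that of the vehicle-treated control group.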

Where [1] appears, read: dose: 25.0 mg/kg/injection, schedule: Q04DX003 (ip), vehicle: saline with Tween-80.
Where [2] appears, read: dose: 50.0 mg/kg/injection, schedule: Q04DX003 (ip), vehicle: saline with Tween-80.
Where [3] appears, read: dose: 50.0 mg/kg/injection, schedule: Q01DX009 (ip), vehicle: saline with Tween-80.
[4] abbreviates: dose: 100.0 mg/kg/injection, schedule: Q01DX009 (ip), vehicle: saline with Tween-80.
The mark [5] stands for this setting: dose: 100.0 mg/kg/injection, schedule: Q04DX003 (ip), vehicle: saline with Tween-80.
[6] abbreviates: dose: 200.0 mg/kg/injection, schedule: Q01DX009 (ip), vehicle: saline with Tween-80.
Where [7] appears, read: dose: 25.0 mg/kg/injection, schedule: Q01DX009 (ip), vehicle: saline with Tween-80.
The mark [8] stands for this setting: dose: 100.0 mg/kg/injection, schedule: Q01DX001 (ip), vehicle: Klucel (hydroxypropylcellulose) (HPC).
Where [9] appears, read: dose: 200.0 mg/kg/injection, schedule: Q01DX001 (ip), vehicle: Klucel (hydroxypropylcellulose) (HPC).
The mark [10] stands for this setting: dose: 100.0 mg/kg/injection, schedule: Q04DX003 (ip), vehicle: saline.
[11] abbreviates: dose: 200.0 mg/kg/injection, schedule: Q04DX003 (ip), vehicle: saline.
Setting [12] is: dose: 50.0 mg/kg/injection, schedule: Q01DX005 (ip), vehicle: Klucel (hydroxypropylcellulose) (HPC).
Setting [13] is: dose: 100.0 mg/kg/injection, schedule: Q01DX005 (ip), vehicle: Klucel (hydroxypropylcellulose) (HPC).
Setting [14] is: dose: 200.0 mg/kg/injection, schedule: Q01DX005 (ip), vehicle: Klucel (hydroxypropylcellulose) (HPC).
[15] abbreviates: dose: 50.0 mg/kg/injection, schedule: Q04DX003 (ip), vehicle: saline.

SMILES strings stand for the structures. Where “and” joins values, the source holds several entries; their conditions need not be identical. Equal entries are not always repeated. Inconclusive results and toxic doses are left out. Square brackets hold non-standard residues; d marks the D form. Peptide text beside a SMILES is read from it. Sar = CNCC(=O)O

`CC1(C)CC(O)C2(CO)C(C1)C1=CCC3C4(C)CCC(O)C(C)(C)C4CCC3(C)C1(C)C(O)C2O` (stereo not given): the T/C (dose: 5.25 mg/kg/injection, schedule: Q01DX005 (ip), vehicle: Klucel (hydroxypropylcellulose) (HPC)) is 100 % of control; the T/C (dose: 10.5 mg/kg/injection, schedule: Q01DX005 (ip), vehicle: Klucel (hydroxypropylcellulose) (HPC)) is 103 % of control; the T/C (dose: 21.0 mg/kg/injection, schedule: Q01DX005 (ip), vehicle: Klucel (hydroxypropylcellulose) (HPC)) was 94 % of control; the T/C (dose: 42.0 mg/kg/injection, schedule: Q01DX005 (ip), vehicle: Klucel (hydroxypropylcellulose) (HPC)) is 99 % of control.
For `O=C(O)c1cc(Br)ccc1OCc1cccc(Cl)c1`, the T/C by setting is: under setting [1], 101 % of control; under setting [2], 98 % of control.
Take `O=C1C(c2ccccc2)=C(c2ccccc2)C2(c3ccccc3)Oc3c(Cl)c(Cl)c(Cl)c(Cl)c3OC12c1ccccc1` (stereo not given): the T/C under setting [3] was 89 % of control and the T/C under setting [4] was 93 % of control.
Regarding `CC(=O)OC1CC(n2cc(C)c(=O)[nH]c2=O)OC1COP(=O)(N1CC1)N1CC1` (stereo not given), the T/C was 104 % of control under setting [1], 112 % of control under setting [2] and 124 % of control under setting [5].
For the molecule `O=C(O)/C=C/c1csc(-c2ccc(Cl)cc2)n1`, the T/C under setting [3] is 88 % of control, the T/C under setting [4] was 88 % of control and the T/C under setting [6] was 106 % of control.
As for `c1ccc(Cc2cc[n+](Cc3ccccc3)cc2)cc1`, the T/C runs as follows: (dose: 12.5 mg/kg/injection, schedule: Q01DX009 (ip), vehicle: saline) 100 % of control; (dose: 25.0 mg/kg/injection, schedule: Q01DX009 (ip), vehicle: saline) 101 % of control; (dose: 50.0 mg/kg/injection, schedule: Q01DX009 (ip), vehicle: saline) 101 % of control and 89 % of control.
As for `CC(C)C(Br)C(=O)NCC(=O)O` (stereo not given), the T/C reads like this: under setting [5], 100 % of control; (dose: 200.0 mg/kg/injection, schedule: Q04DX003 (ip), vehicle: saline with Tween-80) 95 % of control; (dose: 400.0 mg/kg/injection, schedule: Q04DX003 (ip), vehicle: saline with Tween-80) 100 % of control.
In the case of `CSC1(SC)CCN(C)C1=O`, the T/C is, setting by setting: under setting [7], 90 % of control; under setting [3], 93 % of control; under setting [4], 92 % of control.
For `CCCCCCCCCCCCCCCC[N+]1(CC)CCCC1`, the T/C was 100 % of control (dose: 0.09 mg/kg/injection, schedule: Q01DX009 (ip), vehicle: saline); 98 % of control (dose: 0.19 mg/kg/injection, schedule: Q01DX009 (ip), vehicle: saline); 112 % of control and 93 % of control (dose: 0.39 mg/kg/injection, schedule: Q01DX009 (ip), vehicle: saline).
With `CC(C)C1=CC2C3C(=O)NC(=O)C3C1C1C3C(=O)NC(=O)C3C21` (stereo not given), the T/C is, setting by setting: (dose: 60.0 mg/kg/injection, schedule: Q01DX005 (ip), vehicle: saline) 98 % of control; (dose: 120.0 mg/kg/injection, schedule: Q01DX005 (ip), vehicle: saline) 100 % of control; (dose: 240.0 mg/kg/injection, schedule: Q01DX005 (ip), vehicle: saline) 100 % of control.
In the case of `Cc1c(N2CCCC2)cc2c(c1NC(=O)c1ccccc1Cl)C(C)(C)CC2(C)C`, the T/C by setting is: (dose: 50.0 mg/kg/injection, schedule: Q01DX009 (ip), vehicle: Klucel (hydroxypropylcellulose) (HPC)) 99 % of control; (dose: 100.0 mg/kg/injection, schedule: Q01DX009 (ip), vehicle: Klucel (hydroxypropylcellulose) (HPC)) 100 % of control; (dose: 200.0 mg/kg/injection, schedule: Q01DX009 (ip), vehicle: Klucel (hydroxypropylcellulose) (HPC)) 99 % of control.
Consider `COC(=O)c1c(-c2cc(OC)c(OC)cc2[N+](=O)[O-])cn(C)c1C`, for which the T/C (dose: 50.0 mg/kg/injection, schedule: Q01DX005 (ip), vehicle: saline with Tween-80) is 88 % of control and the T/C (dose: 100.0 mg/kg/injection, schedule: Q01DX005 (ip), vehicle: saline with Tween-80) is 86 % of control.
For the molecule `CCOP(O)(=S)OCC.[Y]`, the T/C (dose: 50.0 mg/kg/injection, schedule: Q01DX001 (ip), vehicle: Klucel (hydroxypropylcellulose) (HPC)) is 90 % of control; the T/C under setting [8] was 87 % of control; the T/C under setting [9] is 95 % of control.
For the molecule `CN(C)c1ccc(/C=N\N=C/c2ccc(N(C)C)cc2)cc1`, the T/C by setting is: (dose: 60.0 mg/kg/injection, schedule: Q01DX005 (ip), vehicle: Klucel (hydroxypropylcellulose) (HPC)) 88 % of control; (dose: 120.0 mg/kg/injection, schedule: Q01DX005 (ip), vehicle: Klucel (hydroxypropylcellulose) (HPC)) 87 % of control; (dose: 240.0 mg/kg/injection, schedule: Q01DX005 (ip), vehicle: Klucel (hydroxypropylcellulose) (HPC)) 86 % of control.
Take `O=C(NC(CC(NC(=O)OCc1ccccc1)NC(=O)OCc1ccccc1)NC(=O)OCc1ccccc1)OCc1ccccc1`: the T/C (dose: 60.0 mg/kg/injection, schedule: Q01DX005 (ip), vehicle: saline with Tween-80) is 89 % of control; the T/C (dose: 120.0 mg/kg/injection, schedule: Q01DX005 (ip), vehicle: saline with Tween-80) is 91 % of control; the T/C (dose: 240.0 mg/kg/injection, schedule: Q01DX005 (ip), vehicle: saline with Tween-80) is 103 % of control.
`N#CC1(C#N)C2C=CC(C2)N1OC(=O)c1ccc([N+](=O)[O-])cc1` (stereo not given): the T/C was 95 % of control under setting [3], 92 % of control under setting [4] and 95 % of control under setting [6].
`COC1CCCC2OC3(OC)C(OC)CCCC3OC12OC` (stereo not given): the T/C by setting is: (dose: 50.0 mg/kg/injection, schedule: Q04DX003 (ip), vehicle: Klucel (hydroxypropylcellulose) (HPC)) 100 % of control; (dose: 100.0 mg/kg/injection, schedule: Q04DX003 (ip), vehicle: Klucel (hydroxypropylcellulose) (HPC)) 97 % of control; (dose: 200.0 mg/kg/injection, schedule: Q04DX003 (ip), vehicle: Klucel (hydroxypropylcellulose) (HPC)) 96 % of control.
In the case of `C=CCC1(CCC#N)C(=O)CC(C)(C)CC1=O`, the T/C was 104 % of control under setting [10]; 99 % of control under setting [11]; 98 % of control (dose: 400.0 mg/kg/injection, schedule: Q04DX003 (ip), vehicle: saline).
Turning to `O=P(c1ccccc1)(c1ccccc1)c1ccccc1OCCCO`, the T/C was 99 % of control under setting [12], 100 % of control under setting [13] and 97 % of control under setting [14].
Turning to `CN(C)CN1C(=O)S/C(=C2\C(=O)N(C)c3ccc(Br)cc32)C1=O`, the T/C runs as follows: under setting [8], 101 % of control; under setting [9], 95 % of control; (dose: 400.0 mg/kg/injection, schedule: Q01DX001 (ip), vehicle: Klucel (hydroxypropylcellulose) (HPC)) 97 % of control.
For the molecule `C=C(C)C(=NC1CCCCC1)NC(C)(C)C`, the T/C (dose: 25.0 mg/kg/injection, schedule: Q01DX005 (ip), vehicle: Klucel (hydroxypropylcellulose) (HPC)) was 99 % of control; the T/C under setting [12] is 100 % of control; the T/C under setting [13] is 99 % of control and 102 % of control.
Consider `CN(CC(=O)O)C(=O)CNC(=O)CN` (H-Gly-Gly-[Sar]-OH), for which the T/C (dose: 50.0 mg/kg/injection, schedule: Q01DX005 (ip), vehicle: saline) was 91 % of control; the T/C (dose: 100.0 mg/kg/injection, schedule: Q01DX005 (ip), vehicle: saline) was 92 % of control; the T/C (dose: 200.0 mg/kg/injection, schedule: Q01DX005 (ip), vehicle: saline) was 91 % of control.
Consider `Cn1cncc1/C=N\NC(N)=S`, for which the T/C reads like this: under setting [7], 102 % of control; under setting [3], 88 % of control; under setting [15], 109 % of control; under setting [4], 110 % of control; under setting [10], 102 % of control; under setting [11], 102 % of control.
Take `CN(C)CC(Cl)CCl` (stereo not given): the T/C by setting is: under setting [15], 109 % of control; under setting [10], 109 % of control; (dose: 200.0 mg/kg/injection, schedule: Q01DX009 (ip), vehicle: saline) 195 % of control.
Consider `O=C(O)C1=C(C=C(c2ccccc2)c2ccccc2)OCCC1`, for which the T/C is, setting by setting: (dose: 12.5 mg/kg/injection, schedule: Q01DX009 (ip), vehicle: saline with Tween-80) 92 % of control; under setting [7], 90 % of control; under setting [3], 91 % of control; under setting [6], 97 % of control.
`Nc1nc2ncc(CCCl)cc2c(=O)[nH]1`: the T/C was 102 % of control under setting [12], 123 % of control under setting [13] and 107 % of control under setting [14].
